Data on one compound can be found in paper PMC12147183, “Lacritin cleavage-potentiated targeting of iron - respiratory reciprocity promotes bacterial death” (The Journal of Biological Chemistry, 2025).

The target of series [1] is thrombin (F2) (Homo sapiens, UniProt P00734). Kind of series: Affinity pulldown of human tears on peptide columns. Format: binding. Conditions: pooled human basal tears, 300 mOsm/l, 0.5 M KCl eluant, anti-F2 immunodetection. Here is the method:
Studies in this work abide by the Declaration of Helsinki principles. As per UVA IRB protocol 18,592, consented normal human volunteers were subjected to 0.5% proparacaine anesthesia of the eye to minimize reflex tearing. Human basal tears were then wicked for 5 min onto filter paper-like Schirmer strips. Those that had wicked a distance of at least 12 mm were subjected to 4 °C elution with 10 mM Na2HPO4, 1.8 mM KH2PO4, 2.7 mM KCl, 137 mM NaCl (pH 7.2) for a final total pooled tear volume of 170 μl. The pool was diluted five-fold in 10 mM Na2HPO4, 1.8 mM KH2PO4, 2.7 mM KCl, and 137 mM NaCl (pH 7.2) with protease inhibitors and subjected to end-over-end mixing with a 100 μl precolumn of Pierce Agarose followed by equal division by protein concentration into each of 100 μl of N-104 or C-95 columns. The solution was mixed for 5 h at 4 °C. Columns were subjected to washing with 10 mM Na2HPO4, 1.8 mM KH2PO4, 2.7 mM KCl, and 137 mM NaCl (pH 7.2) containing the same protease inhibitors followed by elution using KCl (0.3, 0.5, and 1.0 M KCl) in the same buffer. The 0.5 M KCl eluate was submitted for mass spectrometric sequencing by UVA's Biomolecular Analysis Facility, as previously noted. The acquired data were analyzed by database searching using the Sequest search algorithm against UniProt H. sapiens. […]

Series [2] deals with PA14 fed to C. elegans. In kind it is in vivo, Caenorhabditis elegans. Here is the method:
L1 stage C. elegans worms on Nematode Growth Medium (NGM) plates with E. coli OP50 as a food source were cultivated at room temperature in a humidified chamber until maturation into sterile young adults ([84]), carefully washed off with M9 minimal salts and then collected by pelleting (1200g, 2 min). […] After 3 days, bacteria and debris were removed leaving 50 μl per well of worms to which 50 μl of 6 μM SYTOX Orange was added in M9 minimal salts. The next day, images were captured using both transmission and epifluorescence (excitation/detection = 535/610 nm) on an AMG EVOS FL AMF-4301 fluorescence microscope (Thermo Fisher Scientific).

Series [3] relates to PA14 transcriptome. Put plainly: RNAseq of N-104 treated PA14. In kind it is cell-based, Pseudomonas aeruginosa. Conditions: 20 μM N-104 versus N-80/C-25, 45 min at 35 °C, 5 × 10^8 cfu/ml. The procedure:
For RNA extraction and sequencing of P. aeruginosa, we used diethylpyrocarbonate (DEPC) treated Eppendorf tubes (except for those used for synthetic peptide incubation). An aliquot of PA14 overnight culture grown for 3.5 to 4.0 h in LB broth to OD600 = 0.5 (5.0 × 10^8 cells) was gently pelleted (12,000g, 30 s), resuspended in 0.5 ml of 1 mM Na2HPO4, 0.18 mM KH2PO4, 0.27 mM KCl, 13.7 mM NaCl (pH 7.2) and incubated with five or 20 μM N-104, or 20 μM N-80/C-25 for 45 min at 35 °C or left untreated. After pelleting (12,000g, 5 min), cells were resuspended in 0.5 ml of TE buffer supplemented with 1 ml of RNA-protect Bacteria Reagent with 5 s of vortexing prior to incubation for 5 min at room temperature, pelleting (5000g, 10 min), and lysis initiated in 200 μl of 15 mg/ml lysozyme together with 20 μl of 2.5 mg/ml proteinase K, both in TE buffer. […] Library construction and sequencing were performed by UVA's Genome Analysis and Technology Core involving mRNA enrichment via the NEBNext rRNA Depletion Kit (Bacteria), and transcriptome sequencing on a Next Seq 500 Mid Output platform, with 150-bp paired-end reads. The range of raw reads for each sample varied from 8 to 10 million, thus ensuring an optimal depth of sequencing that was analyzed by UVA's Bioinformatics Core facility.

The subject of series [4] is P. aeruginosa PA14. The procedure:
After overnight incubation at 37 °C, plates were analyzed on a ChemiDoc XRS (Bio-Rad).

Series [5] concerns P. aeruginosa PA14. Kind of series: SYTOX Orange PA14 membrane disruption assay. To be noted: 25 μM peptide, PA14 10^7 cfu/ml, 1 h at 35 °C, 5 μM SYTOX Orange; positive control 70% ethanol.

Converted amounts (≈) assume the structure as drawn. Peptide text beside a SMILES is read from it.

In the case of `CC(=O)N[C@@H](C)C(=O)N[C@@H](CCC(N)=O)C(=O)N[C@@H](CCCCN)C(=O)N[C@@H](CC(C)C)C(=O)N[C@@H](CC(C)C)C(=O)N[C@@H](CCCCN)C(=O)N[C@@H](CCCCN)C(=O)N[C@@H](Cc1ccccc1)C(=O)N[C@@H](CO)C(=O)N[C@@H](CC(C)C)C(=O)N[C@@H](CC(C)C)C(=O)N[C@@H](CCCCN)C(=O)N1CCC[C@H]1C(=O)N[C@@H](Cc1c[nH]c2ccccc12)C(=O)N[C@@H](C)C(=O)O` [N-104] (Ac-AQKLLKKFSLLKPWA-OH), the “binding of tear thrombin to immobilized peptide” value in series [1] was “binds thrombin”. For the same compound, in series [2] (0 or 50 μM N-104, 5 h, 10^7 cfu/ml, n = 3), the “N-104 resistance of PA14 ΔyaiW in C. elegans survival assay” value is “partially resistant”. Also, in series [2] (100 μM N-104 without PA14, 3 days), the “viability of C. elegans fed N-104 alone” value is listed as “did not affect viability”. For the same compound, the “survival of C. elegans fed peptide-treated PA14” value in series [2] (PA14 10^7 cfu/ml treated 5 h with 100 μM peptide (legend; method says 50 μM), fed to 50 worms for 3 days, SYTOX Orange, n = 3) is given as “fully survived”. Also, in series [3], the “effect on PA14 respiratory gene expression” value is recorded as “promotes the expression of genes regulating anaerobic respiration while largely suppressing those involved in aerobic respiration”. Besides, the “N-104 resistance of PA14 ΔyaiW in CFU assay” value in series [4] (0, 2 or 5 μM N-104, 10^6 cfu/ml, n = 3) is reported as “partially resistant”. Besides, in series [4] (0 to 400 μM N-104 in 30 or 300 mOsm/l phosphate buffer, 8 h, n = 3), the “bactericidal efficacy versus osmolarity” value is “diminishes as osmolarity increases”. For the same compound, the “minimum inhibitory concentration (MIC)” value in series [4] (PA14, 8 h) was determined as 2 µM (≈ 3.63 µg/mL). Moreover, the “membrane disruption (SYTOX Orange uptake)” value in series [5] is reported as “no SYTOX Orange uptake was observed”.
